Measured values as given in patent publication US9701707B2, “Methods of synthesizing substituted purine compounds” (Epizyme, Inc., priority 2013, dated 2017).

Experiments:
Type in all cases: physicochemical
[1] = Equilibrium solubility in aqueous media; details: for Solubility: LOD 0.1 μg/ml
Procedure: (§1) Approximately 10 mg of Form B was weighed into a 1-ml glass vial followed by addition of 0.5 ml relevant media. Each sample was continuously stirred using a magnetic stir bar at 25° C. for 24 h. The suspension was then filtered using a nylon membrane with a pore diameter of 0.22 μm. The filtrates were diluted for HPLC analysis and final pH was measured. The solid residue of each sample was collected for XRPD analysis.
The solubilities of Form B in water and five different pH values at 25° C. were determined by HPLC after 24 h equilibration. Solubility data for Form B was obtained across the physiological pH by using buffer solutions from pH 2 to pH 10.
Preparation of pH Buffers • pH 2: 0.01N HCl solution. Dilute 1 ml of 1 N HCl with H2O up to a total volume of 100 ml. Measure the pH and precisely adjust to pH=2.00 using a few microliters of 1N HCl or 1N NaOH. • pH 4: 50 mM Na citrate buffer. Prepare a 50 mM citric acid solution by diluting 10 ml of 1N citric acid with H2O up to a total volume of 200 ml. Slowly add solid NaOH under stirring to increase the pH to 3.8-4.0 and use a few microliters of 1N NaOH for final adjustment to pH 4.00. • pH 6: 50 mM Na citrate buffer. Use the same procedure as the pH 4 buffer and adjust to pH=6.00 • pH 8: 50 mM Na phosphate buffer. Prepare a 50 mM NaH2PO4 solution by dissolving 6.00 g NaH2PO4 in 1 L of H2O and a 50 mM Na2HPO4 solution by dissolving 7.10 g in 1 L of H2O. Mix 10 ml of the NaH2PO4 solution with 140 ml of the Na2HPO4 solution in a beaker. Adjust to pH 8.00 by addition of small amounts of 50 mM NaH2PO4 or Na2HPO4 solution. • pH 10: 50 mM Na carbonate buffer. Prepare a 50 mM carbonate solution by dissolving 840 mg of sodium bicarbonate (NaHCO3) in about 180 ml of H2O. Slowly adjust the pH to 10.0±0.1 by addition of 1N NaOH. Add water to reach the total volume of 200 ml and adjust to pH 10.00 with 1N NaOH.

[2] = Equilibrium solubility in organic solvents; details: RT; for Remaining Solid: XRPD; for solubility at 24 h: organic solvent or mixture, thermodynamic from solid
Procedure: as §1, with “analysis. The solubility of Form B was also determined in commonly used organic solvents (diluents or HPLC mobile phase). The solubility data summarized in Table 10 indicates Form B is quite soluble in MeOH, EtOH, and IPA.” for “analysis.”

Solution photostability = experiment: Solution photostability
Procedure: Solution Photostability: Weighed ˜1 mg of Form B and dissolved in 3 solutions at different pHs (0.01 N HCl, 0.01 N NaOH and water). Methanol was added as a co-solvent to dissolve Form B in solutions (i.e., 10% (v/v) methanol in 0.01 N HCl, 20% (v/v) in water and 30% (v/v) in 0.01 N NaOH), the final concentration was 0.1 mg/mL. For each solution, 1 sample and 1 control covered in foil were put into the photo chamber for Vis study (2 vials total for each solution). Measure the concentration and monitor the degradation.

[3] = Solid-state stability (chemical and physical); details: 5° C. Closed Dish, 7 Days
Procedure: Chemical Stability: Accurately weighed ˜10 mg Form B was placed into four 10-ml volumetric flasks. The samples were stored at 5° C. closed dish, 25° C./57% RH open dish, 40° C./75% RH open dish, and 60° C. closed dish for 7 days. The sample stored at 5° C. was used as a control. Assay and total related substances for each sample were checked at the end of 7 days.
Physical Stability: Accurately weighed ˜15 mg of Form B was placed into 5-ml glass vials and the samples were stored at 5° C. closed dish, 25° C./57% RH open dish, 40° C./75% RH open dish, and 60° C. closed dish for 7 days. Samples were analyzed by XRPD and TGA (FIG. 24).

[4] = 0.01N HCl Dark, Vis Stability (1.2 Mil lux-hours), final pH 2.1
[5] = 0.01N HCl Dark, Vis-UV Stability (1.2 Mil lux-hours + 200 Watt-hours/m^2), final pH 2.1
[6] = 0.01N HCl Light, Vis Stability (1.2 Mil lux-hours), final pH 2.1
[7] = 0.01N HCl Light, Vis-UV Stability (1.2 Mil lux-hours + 200 Watt-hours/m^2), final pH 2.1
[8] = 0.01N NaOH Dark, Vis Stability (1.2 Mil lux-hours), final pH 11.6, precipitation observed
[9] = 0.01N NaOH Dark, Vis-UV Stability (1.2 Mil lux-hours + 200 Watt-hours/m^2), final pH 11.7, precipitation observed
[10] = 0.01N NaOH Light, Vis Stability (1.2 Mil lux-hours), final pH 11.7, precipitation observed
[11] = 0.01N NaOH Light, Vis-UV Stability (1.2 Mil lux-hours + 200 Watt-hours/m^2), final pH 11.7, precipitation observed
[12] = H2O Dark, Vis Stability (1.2 Mil lux-hours), final pH 7.7
[13] = H2O Dark, Vis-UV Stability (1.2 Mil lux-hours + 200 Watt-hours/m^2), final pH 8.1
[14] = H2O Light, Vis Stability (1.2 Mil lux-hours), final pH 7.3
[15] = H2O Light, Vis-UV Stability (1.2 Mil lux-hours + 200 Watt-hours/m^2), final pH 7.3

SMILES: CC(C)N(C[C@H]1O[C@@H](n2cnc3c(N)ncnc32)[C@H](O)[C@@H]1O)[C@H]1C[C@@H](CCc2nc3cc(C(C)(C)C)ccc3[nH]2)C1 [Form B, (2R,3R,4S,5R)-2-(6-amino-9H-purin-9-yl)-5-((((1r,3S)-3-(2-(5-(tert-butyl)-1H-benzo[d]imidazol-2-yl)ethyl)cyclobutyl)(isopropyl)amino)methyl)tetrahydrofuran-3,4-diol trihydrate]
- Solubility ([1]; 50 mM Na carbonate buffer, pH (initial) 10.0, pH (final) 10.0, RT, 24 h): <LOD
- Solubility ([1]; 50 mM Na phosphate buffer, pH (initial) 8.0, pH (final) 8.0, RT, 24 h): <LOD^§
- solubility at 24 h ([1]; 50 mM sodium citrate buffer, 25 °C, pH 6, aqueous buffer, thermodynamic from solid, 50 mM sodium citrate, pH (initial) 6.0, pH (final) 6.0, RT): 0.08 mg/mL
- Remaining Solid ([1]; Water, RT, 24 h, XRPD): Form B
- Remaining Solid ([2]; Acetone): Form B
- Remaining Solid ([2]; Acetonitrile): Form B
- solubility at 24 h ([2]; Ethanol): > 87 mg/mL
- solubility at 24 h ([2]; Isopropanol): > 129 mg/mL
- solubility at 24 h ([2]; Methanol): > 200 mg/mL
- % area (100% − TRS%) (Solution photostability; [4]): 99.4%
- % claim (Cs/Ci × 100%) (Solution photostability; [4]): 100.0%
- % area (100% − TRS%) (Solution photostability; [5]): 99.9%
- % claim (Cs/Ci × 100%) (Solution photostability; [5]): 100.0%
- % area (100% − TRS%) (Solution photostability; [6]): 98.5%
- % claim (Cs/Ci × 100%) (Solution photostability; [6]): 98.8%
- % area (100% − TRS%) (Solution photostability; [7]): 99.9%
- % claim (Cs/Ci × 100%) (Solution photostability; [7]): 99.9%
- % area (100% − TRS%) (Solution photostability; [8]): 99.7%
- % claim (Cs/Ci × 100%) (Solution photostability; [8]): 100.0%
- % area (100% − TRS%) (Solution photostability; [9]): 100.0%
- % claim (Cs/Ci × 100%) (Solution photostability; [9]): 100.0%
- % area (100% − TRS%) (Solution photostability; [10]): 99.6%
- % claim (Cs/Ci × 100%) (Solution photostability; [10]): 44.5%
- % area (100% − TRS%) (Solution photostability; [11]): 99.3%
- % claim (Cs/Ci × 100%) (Solution photostability; [11]): 66.3%
- % area (100% − TRS%) (Solution photostability; [12]): 100.0%
- % claim (Cs/Ci × 100%) (Solution photostability; [12]): 100.0%
- % area (100% − TRS%) (Solution photostability; [13]): 100.0%
- % claim (Cs/Ci × 100%) (Solution photostability; [13]): 100.0%
- % area (100% − TRS%) (Solution photostability; [14]): 99.6%
- % claim (Cs/Ci × 100%) (Solution photostability; [14]): 98.5%
- % area (100% − TRS%) (Solution photostability; [15]): 99.3%
- % claim (Cs/Ci × 100%) (Solution photostability; [15]): 94.7%
- solution photostability (Solution photostability; in water and 0.01N HCl solution, exposure to UV/Vis): stable
- Physical: XRPD [3]: Form B
- Chemical: % Claim (Cs/Ci × 100%) ([3]; sample used as standard for the calculation): 100.0^& %
